Laboratory results published in patent publication US7435820B2, “Substituted tetrahydro-1H-pyrazolo [3,4-c]pyridines compositions comprising them, and use” (Aventis Pharma S.A., priority 2003, dated 2008).

Tests used:
human Tie2 = target: T1, human Tie2 (Homo sapiens, UniProt Q02763); assay: Tie2 kinase inhibition: phosphorylation of GST-PLC (SH2-SH3 fragments) by GST-Tie2, 33P-ATP flashplate; assay type: biochemical; conditions: read-out: Tie2 % Inhib. 10 μM
T1 construct: human Tie2 corresponding to amino acids 776-1124 of the intracellular domain was generated by PCR; made in house; host or cells: baculovirus expression system (vector pFastBacGT)
Protocol: The coding sequence of human Tie2 corresponding to amino acids 776-1124 of the intracellular domain was generated by PCR using the cDNA isolated from human placenta as model. This sequence was introduced into a baculovirus expression vector pFastBacGT in the form of a GST fusion protein.
The inhibitory effect of the molecules is determined in an assay for phosphorylation of PLC by Tie2 in the presence of GST-Tie2 purified to approximately 80% homogeneity. The substrate is made up of the SH2-SH3 fragments of PLC, the latter being expressed in the form of a GST fusion protein.
The kinase activity of Tie2 is measured in a 20 mM MOPS buffer, pH 7.2, containing 10 mM MgCl2, 10 mM MnCl2, 1 mM DTT and 10 mM of glycerophosphate. A reaction mixture made up of 70 μl of kinase buffer containing 100 ng of GST-Tie2 enzyme per well is placed in a flashplate 96-well plate kept on ice. 10 μl of the molecule to be tested, diluted in DMSO, at a concentration of at most 10% are then added. For a given concentration, each measurement is carried out in quadruplicate. The reaction is initiated by adding 20 μl of solution containing 2 μg of GST-PLC, 2 μM of cold ATP and 1 μCi of ^33P[ATP]. After incubation for 1 hour at 37° C., the reaction is stopped by adding 1 volume (100 μl) of 200 mM EDTA. After removal of the incubation buffer, the wells are washed three times with 300 μl of PBS. The radioactivity is measured on a Wallac MicroBeta 1450.
The inhibition of the Tie2 activity is calculated and expressed as percentage inhibition with respect to the control activity determined in the absence of compound.

human KDR enzyme = target: T2, human KDR enzyme (Homo sapiens, UniProt P35968); assay: KDR kinase inhibition: phosphorylation of PLCγ SH2-SH3 substrate by KDR enzyme, 33P-ATP scintillation plate; assay type: biochemical; conditions: read-out: KDR % Inhib. 10 μM
T2 construct: The cytoplasmic domain of the human KDR enzyme was cloned in GST fusion form; GST; made in house; host or cells: SF21 insect cells (baculovirus, pFastBac)
Protocol: The inhibitory effect of the compounds is determined in an assay for phosphorylation of substrate by the KDR enzyme in vitro using a scintillation technique (96-well plate, NEN).
The cytoplasmic domain of the human KDR enzyme was cloned in GST fusion form into the baculovirus expression vector pFastBac. The protein was expressed in SF21 cells and purified to approximately 60% homogeneity. The KDR kinase activity is measured in 20 mM MOPS, 10 mM MgCl2, 10 mM MnCl2, 1 mM DTT, 2.5 mM EGTA, 10 mM b-glycerophosphate, pH=7.2, in the presence of 10 mM MgCl2, 100 μM Na3VO4 and 1 mM NaF. 10 μl of the compound are added to 70 μl of kinase buffer containing 100 ng of KDR enzyme at 4° C. The reaction is initiated by adding 20 μl of solution containing 2 μg of substrate (SH2-SH3 fragment of PLCγ expressed in the form of an GST fusion protein), 2 μCi γ ^33P[ATP] and 2 μM cold ATP. After incubation for 1 hour at 37° C., the reaction is stopped by adding 1 volume (100 μl) of 200 mM EDTA. The incubation buffer is removed and the wells are washed three times with 300 μl of PBS. The radioactivity is measured in each well using a Top Count NXT (Packard) radioactivity counter.
The background noise is determined by measuring the radioactivity in four different wells containing the radioactive ATP and the substrate alone.
A total activity control is measured in four different wells containing all the reagents (γ^33P-[ATP], KDR and PLC-γ substrate) but in the absence of compound.
The inhibition of the KDR activity with the compound of the invention is expressed as percentage inhibition of the control activity determined in the absence of compound.
The compound SU5614 (Calbiochem) (1 μM) is included in each plate as inhibition control.

T1 sequence (Q02763 776-1124): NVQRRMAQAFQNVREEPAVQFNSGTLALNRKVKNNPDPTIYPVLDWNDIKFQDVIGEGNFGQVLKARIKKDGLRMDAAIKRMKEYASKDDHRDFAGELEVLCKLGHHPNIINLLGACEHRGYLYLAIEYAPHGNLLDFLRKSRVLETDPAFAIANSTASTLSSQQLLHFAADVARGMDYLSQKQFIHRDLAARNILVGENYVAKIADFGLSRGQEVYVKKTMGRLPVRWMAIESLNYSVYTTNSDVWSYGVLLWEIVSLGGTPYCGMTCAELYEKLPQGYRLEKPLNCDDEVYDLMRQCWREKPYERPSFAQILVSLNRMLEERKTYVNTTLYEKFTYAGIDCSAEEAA
T2 sequence (P35968 786-1356 limits assumed): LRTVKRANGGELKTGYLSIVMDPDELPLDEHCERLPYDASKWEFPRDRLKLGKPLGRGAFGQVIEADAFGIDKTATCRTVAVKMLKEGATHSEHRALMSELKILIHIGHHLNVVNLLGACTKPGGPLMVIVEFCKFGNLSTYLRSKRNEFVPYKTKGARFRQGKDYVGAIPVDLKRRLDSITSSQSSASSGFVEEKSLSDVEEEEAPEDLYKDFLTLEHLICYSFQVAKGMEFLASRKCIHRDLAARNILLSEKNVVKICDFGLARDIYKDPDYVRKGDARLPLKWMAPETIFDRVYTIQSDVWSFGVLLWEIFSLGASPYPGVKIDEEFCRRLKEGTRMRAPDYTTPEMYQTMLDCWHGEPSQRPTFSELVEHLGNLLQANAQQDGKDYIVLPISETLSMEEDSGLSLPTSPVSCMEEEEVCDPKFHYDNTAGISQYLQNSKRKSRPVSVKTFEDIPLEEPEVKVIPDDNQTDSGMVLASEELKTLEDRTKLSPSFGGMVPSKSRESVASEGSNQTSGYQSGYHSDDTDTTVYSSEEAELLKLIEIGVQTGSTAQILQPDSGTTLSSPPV

Compound	inhibition at 10 µM (human Tie2)	inhibition at 10 µM (human KDR enzyme)
COc1ccc(S(=O)(=O)Nc2ccc(N3CCc4c(n[nH]c4-c4nc5cc(C)c(C)cc5[nH]4)C3)nc2)cc1	99%	–
Cc1cc2nc(-c3[nH]nc4c3CCN(CC(C)C)C4)[nH]c2cc1C [Chemistry 6]	41.2%	2.1%
Cc1cc2nc(-c3[nH]nc4c3CCN(C)C4)[nH]c2cc1C [Chemistry 7]	48.6%	12.2%
Cc1cc2nc(-c3[nH]nc4c3CCN(CCc3ccccc3)C4)[nH]c2cc1C [Chemistry 9]	56.7%	15.4%
Cc1cc2nc(-c3[nH]nc4c3CCN(Cc3cccc(Cl)c3Cl)C4)[nH]c2cc1C [Chemistry 10]	83.9%	79.5%
Cc1cc2nc(-c3[nH]nc4c3CCN(Cc3cccs3)C4)[nH]c2cc1C [Chemistry 13]	41.5%	84.5%
Cc1cc2nc(-c3[nH]nc4c3CCN(Cc3cccnc3)C4)[nH]c2cc1C [Chemistry 14]	50.5%	14.8%
Cc1cc2nc(-c3[nH]nc4c3CCN(CC(C)(C)C)C4)[nH]c2cc1C [Chemistry 15]	69.4%	39.3%
CCN1CCc2c(n[nH]c2-c2nc3cc(C)c(C)cc3[nH]2)C1 [Chemistry 16]	36.4%	-5.75%
CCCCN1CCc2c(n[nH]c2-c2nc3cc(C)c(C)cc3[nH]2)C1 [Chemistry 20]	47.6%	1.65%
Cc1cc2nc(-c3[nH]nc4c3CCNC4)[nH]c2cc1C [Chemistry 22]	24.9%	3.65%
Cc1cc2nc(-c3[nH]nc4c3CCN(S(=O)(=O)c3ccccc3)C4)[nH]c2cc1C [Chemistry 23]	92.5%	48%
Cc1cc2nc(-c3[nH]nc4c3CCN(S(=O)(=O)Cc3ccccc3)C4)[nH]c2cc1C [Chemistry 24]	91.5%	70.8%
Cc1cc2nc(-c3[nH]nc4c3CCN(S(=O)(=O)c3cccc(Cl)c3Cl)C4)[nH]c2cc1C [Chemistry 25]	89.1%	31.9%
CCCCS(=O)(=O)N1CCc2c(n[nH]c2-c2nc3cc(C)c(C)cc3[nH]2)C1 [Chemistry 30]	44.2%	15.3%
Cc1cc2nc(-c3[nH]nc4c3CCN(S(=O)(=O)c3ccccc3Cl)C4)[nH]c2cc1C [Chemistry 31]	93.2%	45.7%
Cc1cc2nc(-c3[nH]nc4c3CCN(S(=O)(=O)Cc3ccc(F)cc3)C4)[nH]c2cc1C [Chemistry 33]	95.9%	57.7%
COc1ccc(S(=O)(=O)N2CCc3c(n[nH]c3-c3nc4cc(C)c(C)cc4[nH]3)C2)cc1 [Chemistry 34]	84.7%	18.1%
Cc1ccc(S(=O)(=O)N2CCc3c(n[nH]c3-c3nc4cc(C)c(C)cc4[nH]3)C2)cc1 [Chemistry 35]	88.8%	27.4%
COc1cccc(S(=O)(=O)N2CCc3c(n[nH]c3-c3nc4cc(C)c(C)cc4[nH]3)C2)c1 [Chemistry 38]	84.6%	20.9%
Cc1cc2nc(-c3[nH]nc4c3CCN(C(=O)c3cccc(Cl)c3Cl)C4)[nH]c2cc1C [Chemistry 42]	97.4%	52.6%
Cc1cc2nc(-c3[nH]nc4c3CCN(C(=O)Cc3ccccc3)C4)[nH]c2cc1C [Chemistry 43]	84.4%	10.9%

The remaining lines, values ahead:

inhibition at 10 µM (human Tie2)	inhibition at 10 µM (human KDR enzyme)	Compound
98%	–	COc1cc(C)ccc1S(=O)(=O)Nc1ccc(N2CCc3c(n[nH]c3-c3nc4cc(C)c(C)cc4[nH]3)C2)nc1
100%	–	Cc1cc2nc(-c3[nH]nc4c3CCN(c3ccc(NS(=O)(=O)c5cccs5)cn3)C4)[nH]c2cc1C
100%	–	Cc1cc2nc(-c3[nH]nc4c3CCN(c3ccc(NS(=O)(=O)c5ccccc5Cl)cn3)C4)[nH]c2cc1C
–	77.2%	Cc1cc2nc(-c3[nH]nc4c3CCN(C(=O)NCCc3ccccc3)C4)[nH]c2cc1C [Chemistry 2]
–	78.1%	Cc1cc2nc(-c3[nH]nc4c3CCN(S(C)(=O)=O)C4)[nH]c2cc1C [Chemistry 3]
–	25.4%	Cc1cc2nc(-c3[nH]nc4c3CCN(C(=O)c3cccnc3)C4)[nH]c2cc1C [Chemistry 4]
–	88.8%	Cc1cc2nc(-c3[nH]nc4c3CCN(Cc3cccc(Cl)c3)C4)[nH]c2cc1C [Chemistry 5]
64.3%	85.5%	Cc1cc2nc(-c3[nH]nc4c3CCN(Cc3ccccc3)C4)[nH]c2cc1C [Chemistry 8]
66.1%	70.3%	Cc1cc2nc(-c3[nH]nc4c3CCN(Cc3ccco3)C4)[nH]c2cc1C [Chemistry 11]
60.3%	69%	Cc1cc2nc(-c3[nH]nc4c3CCN(Cc3ccc(Cl)cc3)C4)[nH]c2cc1C [Chemistry 12]
50.7%	-2.9%	Cc1cc2nc(-c3[nH]nc4c3CCN(CCC(C)C)C4)[nH]c2cc1C [Chemistry 17]
55%	-3.7%	CCCN1CCc2c(n[nH]c2-c2nc3cc(C)c(C)cc3[nH]2)C1 [Chemistry 18]
68.1%	17.9%	Cc1cc2nc(-c3[nH]nc4c3CCN(CCCc3ccccc3)C4)[nH]c2cc1C [Chemistry 19]
33%	1.85%	Cc1cc2nc(-c3[nH]nc4c3CCN(CC3CC3)C4)[nH]c2cc1C [Chemistry 21]
89.1%	27.8%	Cc1cc2nc(-c3[nH]nc4c3CCN(S(=O)(=O)c3ccc(Cl)cc3)C4)[nH]c2cc1C [Chemistry 26]
65.4%	22.9%	Cc1cc2nc(-c3[nH]nc4c3CCN(S(=O)(=O)CC(F)(F)F)C4)[nH]c2cc1C [Chemistry 27]
78.5%	16.5%	CCS(=O)(=O)N1CCc2c(n[nH]c2-c2nc3cc(C)c(C)cc3[nH]2)C1 [Chemistry 28]
47.5%	13.3%	CCCS(=O)(=O)N1CCc2c(n[nH]c2-c2nc3cc(C)c(C)cc3[nH]2)C1 [Chemistry 29]
91.5%	46.5%	Cc1cc2nc(-c3[nH]nc4c3CCN(S(=O)(=O)c3cccc(Cl)c3)C4)[nH]c2cc1C [Chemistry 32]
90.8%	49.4%	Cc1cc2nc(-c3[nH]nc4c3CCN(S(=O)(=O)c3ccccc3C)C4)[nH]c2cc1C [Chemistry 36]
88.3%	41.2%	Cc1cccc(S(=O)(=O)N2CCc3c(n[nH]c3-c3nc4cc(C)c(C)cc4[nH]3)C2)c1 [Chemistry 37]
97.9%	30.9%	COc1ccccc1S(=O)(=O)N1CCc2c(-c3nc4cc(C)c(C)cc4[nH]3)n[nH]c2C1 [Chemistry 39]
83.4%	14.4%	Cc1cc2nc(-c3[nH]nc4c3CCN(C(=O)C(C)C)C4)[nH]c2cc1C [Chemistry 40]
86.3%	72.5%	Cc1cc2nc(-c3[nH]nc4c3CCN(C(=O)c3ccccc3)C4)[nH]c2cc1C [Chemistry 41]
90.8%	41.1%	CC(=O)N1CCc2c(n[nH]c2-c2nc3cc(C)c(C)cc3[nH]2)C1 [Chemistry 44]
